In data set [1] the test system is Swiss mice. In words: Acute toxicity study (14 days), OECD guideline 423. To be noted: for Organ mass Heart (g) / Organ mass Kidneys (g) / Organ mass Lungs (g) / Organ mass Speleen (g) / Organ mass Liver (g): after acute toxicity study; for Organ mass Heart (g) / Organ mass Kidneys (g) / Organ mass Lungs (g) / Organ mass Speleen (g) / Food (g/day) / Water (mL/day) / Weight gain (g) / Organ mass Liver (g): 2000 mg/kg oral; for Food (g/day) / Water (mL/day) / Weight gain (g): during acute toxicity study; for DA/TA (dead animals/total animals) / Mortality (%) / Signs of Toxicity: single oral dose 2000 mg/kg, female mice, 14 days. Type of data set: in vivo. The procedure:
Based on the low selectivity found in the in vitro cytotoxicity, we decided to perform a preclinical in vivo toxicological analysis on mice to understand the pharmacological profiles of the derivatives described herein. After oral administration of acridine–thiosemicarbazone derivatives to female mice, possible adverse clinical signs and mortality in the groups of animals submitted to the acute toxicity study were recorded (Table 6), as well as absolute body mass, food and water consumption, and the average masses of the organs of the animals treated with the compounds and the control group.
An acute toxicity study was conducted according to Organization for Economic Co-operation and Development (OECD) guideline 423 (OECD 2001) with modifications (National Health Surveillance Agency Brazil, 2013). In principle, the method is not intended to allow an accurate calculation of the lethal dose (LD50), despite providing an estimate of its value; however, it allows a classification of the substance into categories according to the Globally Harmonized Classification System (GHS). The tests were carried out with the consent of the ethics council of the State University of Paraiba (process no. 008/2021, approved 9 November 2021). Swiss mice, three females per group, were subjected to single oral doses of 2000 mg/kg of acridine–thiosemicarbazone derivatives, and to the control group, we administered only the vehicle (12% Tween 80 solution in saline).
After the end of treatment with acridine–thiosemicarbazone derivatives, the animals were anesthetized with a xylazine–ketamine solution of 0.2 mL/100 g (8.75 mL ketamine (100 mg/mL) and 1.25 mL xylazine (10 mg/mL)) as per Cornell University/Cornell Center for Animal Resources and Education protocol described by Flecknell (1996). After euthanasia, a macroscopic assessment of the external body surface, cavities (thoracic, abdominal and cranial) and organs (change in position, shape, size, color and consistency) was carried out. The absolute and relative weights of the brain, lungs, liver, heart, spleen and kidneys were also determined. Relative weight was calculated using the formula: relative organ weight (%) = (weight of organ/weight of mouse) × 100 [88, 89].

Data set [2] deals with B16-F10 (murine melanoma). In words: Alamar blue cytotoxicity assay, B16-F10. Type of data set: cell-based. To be noted: Mus musculus, 72 h incubation. How it is done: The in vitro cytotoxic activity of the compounds (Table 1) was evaluated against cancer cell lines HCT116 (human colon carcinoma), HepG2 (human hepatocellular carcinoma), B16F10 (murine melanoma carcinoma) and non-cancerous cell line MRC-5 (human lung fibroblast) using the Alamar blue assay after 72 h of incubation; doxorubicin (DOX) was used as a positive control. The unsubstituted derivatives on the acridine cores were encoded as CL, and the disubstituted derivatives as DL.
The human cancer cell lines HCT116 (colon carcinoma) and HepG2 (hepatocellular carcinoma), the mouse cancer cell line B16-F10 (melanoma), and the non-cancerous human cell line MRC-5 (lung fibroblast) were obtained from the American Type Culture Collection (ATCC, Manassas, VA, USA) and cultured according to the ATCC animal cell culture guide. All cell lines tested negative for mycoplasma using a mycoplasma stain kit.
Cell viability was measured using the Alamar blue assay, as previously described. Cells were seeded in 96-well plates for all experiments. The compounds were dissolved in dimethyl sulfoxide (DMSO, Sigma-Aldrich) and added to each well in eight serial concentrations ranging from 0.19 to 25 μg/mL. As a positive control, doxorubicin was used. After 72 h of treatment, 20 μL of resazurin (0.312 mg/mL) was added to each well. A SpectraMax 190 Micro-plate Reader was used to measure absorbances at 570 and 595 nm (Molecular Devices, Sunnyvale, CA, USA). Nonlinear regression with 95% confidence intervals (CI 95%) was used to calculate the inhibitory concentration of 50% (IC50) using GraphPad Prism software (Intuitive Software for Science; San Diego, CA, USA).
A general note: The colour change of resazurin is a common sign of viable cells or microbes.

Here are results for three compounds from paper PMC9506480, “Synthesis and Evaluation of Antiproliferative Activity, Topoisomerase IIα Inhibition, DNA Binding and Non-Clinical Toxicity of New Acridine–Thiosemicarbazone Derivatives” (Pharmaceuticals, 2022).

What is called IC50 is the midpoint of a concentration-inhibition curve. A low value points to inhibition by little substance.

On to `Oc1ccc(/C=N/NC(=S)Nc2c3ccccc3nc3ccccc23)cc1` [CL-07, (E)-N-(acridin-9-yl)-2-(4-hydroxybenzylidene)hydrazine-1-carbothioamide], for which, in data set [1], the “Organ mass Heart (g)” value was 0,417±0,038 g, the “Organ mass Kidneys (g)” value is recorded as 1,308±0,099 g, the “Organ mass Lungs (g)” value is 0,619±0,089 g and the “Organ mass Speleen (g)” value is listed as 0,574±0,061 g. For the same compound, in data set [1], the “Food (g/day)” value is on record as 14,57±1,78 g/day, the “Water (mL/day)” value was 23,57±1,34 mL/day, the “Weight gain (g)” value is listed as 1,33±0,27 g and the “DA/TA (dead animals/total animals)” value is given as 0/3. In addition, in data set [1], the “Mortality (%)” value came out at 0% and the “Signs of Toxicity” value is reported as “None”. Further, half-maximal inhibition in data set [2] (IC50) required 19.8 µM.
Consider `COc1ccc2nc3cc(Cl)ccc3c(NC(=S)N/N=C/c3ccccc3)c2c1` [DL-01, (E)-2-benzylidene-N-(6-chloro-2-methoxyacridin-9-yl)hydrazine-1-carbothioamide], for which, in data set [1], the “Organ mass Heart (g)” value is listed as 0,410±0,039 g, the “Organ mass Kidneys (g)” value is 1,338±0,091 g, the “Organ mass Liver (g)” value was 5,257±0,610 g and the “Organ mass Lungs (g)” value is 0,640±0,057 g. In data set [1], the “Organ mass Speleen (g)” value was 0,551±0,037 g, the “Food (g/day)” value is reported as 12,35±1,39 g/day, the “Water (mL/day)” value is 23,71±1,26 mL/day and the “Weight gain (g)” value is 0,69±0,58 g. Moreover, in data set [1], the “DA/TA (dead animals/total animals)” value is recorded as 0/3, the “Mortality (%)” value is given as 0% and the “Signs of Toxicity” value is reported as “Reduced feed consumption”. Further, the IC50 in data set [2] is 39.6 µM.
Consider `COc1ccc2nc3cc(Cl)ccc3c(NC(=S)N/N=C/c3cccc(O)c3)c2c1` [DL-08, (E)-N-(6-chloro-2-methoxyacridin-9-yl)-2-(3-hydroxybenzylidene)hydrazine-1-carbothioamide], for which, in data set [1], the “Organ mass Heart (g)” value is 0,427±0,035 g, the “Organ mass Kidneys (g)” value was 1,355±0,062 g, the “Organ mass Liver (g)” value is 5,619±0,259 g and the “Organ mass Lungs (g)” value was 0,646±0,032 g. For the same compound, in data set [1], the “Organ mass Speleen (g)” value is 0,412±0,033 g, the “Food (g/day)” value is given as 15,21±0,97 g/day, the “Water (mL/day)” value is listed as 25,28±0,46 mL/day and the “Weight gain (g)” value is 0,76±0,43 g. In data set [1], the “DA/TA (dead animals/total animals)” value is given as 0/3, the “Mortality (%)” value is listed as 0% and the “Signs of Toxicity” value was “Hepatic steatosis”. The compound further returned an IC50 in data set [2] of 14.8 µM.
